We go through 4 molecules from ChEMBL document CHEMBL3638496, “Pyrazolopyrrolidine derivatives and their use in the treatment of disease” (2015).

One assay has as its target CREB-binding protein (Homo sapiens, UniProt Q92793). As to the kind of experiment: AlphaScreen In-Vitro Binding Assay: In order to assess bromodomain selectivity, we set up a binding assay using the bromodomain encoded by the CREBBP gene. Compounds were tested in the CREBBP assay with a similar protocol, however using AlphaScreen (Amplified Luminescent Proximity Homogeneous Assay, Perkin Elmer) as detection readout instead of TR-FRET. The assay was started by stepwise addition of 4.5 uL per well of bromo domain protein (50 mM HEPES, pH 7.5, 0.005% Tween20, 0.02% BSA, 150 mM NaCl, 324 nM His-CREBBP (1081-1197) (custom production at Viva Biotech Ltd.)) and 4.5 uL per well of peptide solution (50 mM HEPES, pH 7.5, 0.005% Tween20, 0.02% BSA, 150 mM NaCl, 120 nM acetyl-histone H4 (AcK 5, 8, 12) (Biosyntan GmbH)). Reactions were incubated at 30 C. for 35 minutes. Subsequently 4.5 uL per well detection mix (50 mM HEPES, pH 7.5, 0.005% Tween20, 0.02% BSA, 150 mM NaCl, 45 ug/ml Ni-chelate acceptor beads, 45 ug/mL streptavidin-donor beads) (Perkin Elmer)) were added.

Assay [1] addresses Bromodomain-containing protein 3 (Homo sapiens, UniProt Q15059). Kind of assay: (§1) TR-FRET In-Vitro Binding Assay: All assays were performed in 384-well microtiter plates. Each assay plate contained 8-point serial dilutions for 40 test compounds, plus 16 high- and 16 low controls. Liquid handling and incubation steps were done on an Innovadyne Nanodrop Express equipped with a robotic arm (Thermo CatX, Perkin Elmer/Caliper Twister II) and an incubator (Liconic STX40, Thermo Cytomat 2C450). The assay plates were prepared by addition of 50 nl per well of compound solution in 90% DMSO HummingBird nanodispenser (Zinsser Analytic). The assay was started by stepwise addition of 4.5 uL per well of bromo domain protein (50 mM HEPES, pH 7.5, 0.005% Tween20, 0.1% BSA, 50 mM NaCl, 45 nM His-Brd2(60-472) or 45 nM His-Brd3(20-477) or 45 nM His-Brd4(44-477) all proteins produced in-house) and 4.5 uL per well of peptide solution (50 mM HEPES, pH 7.5, 0.005% Tween20, 0.1% BSA, 50 mM NaCl, 60 nM acetyl-histone H4 (AcK 5, 8, 12, 16) (Biosyntan GmbH)). Reactions were incubated at 30 C. for 35 minutes.

In assay [2] the target is Bromodomain-containing protein 2 (Homo sapiens, UniProt P25440). The description is as §1.
Assay [3] concerns the target Bromodomain-containing protein 4 (Homo sapiens, UniProt O60885). The assay is described as §1.

The structures appear in SMILES notation.

Sequence of Bromodomain-containing protein 3 (Q15059 whole entry, the tested form may be a part): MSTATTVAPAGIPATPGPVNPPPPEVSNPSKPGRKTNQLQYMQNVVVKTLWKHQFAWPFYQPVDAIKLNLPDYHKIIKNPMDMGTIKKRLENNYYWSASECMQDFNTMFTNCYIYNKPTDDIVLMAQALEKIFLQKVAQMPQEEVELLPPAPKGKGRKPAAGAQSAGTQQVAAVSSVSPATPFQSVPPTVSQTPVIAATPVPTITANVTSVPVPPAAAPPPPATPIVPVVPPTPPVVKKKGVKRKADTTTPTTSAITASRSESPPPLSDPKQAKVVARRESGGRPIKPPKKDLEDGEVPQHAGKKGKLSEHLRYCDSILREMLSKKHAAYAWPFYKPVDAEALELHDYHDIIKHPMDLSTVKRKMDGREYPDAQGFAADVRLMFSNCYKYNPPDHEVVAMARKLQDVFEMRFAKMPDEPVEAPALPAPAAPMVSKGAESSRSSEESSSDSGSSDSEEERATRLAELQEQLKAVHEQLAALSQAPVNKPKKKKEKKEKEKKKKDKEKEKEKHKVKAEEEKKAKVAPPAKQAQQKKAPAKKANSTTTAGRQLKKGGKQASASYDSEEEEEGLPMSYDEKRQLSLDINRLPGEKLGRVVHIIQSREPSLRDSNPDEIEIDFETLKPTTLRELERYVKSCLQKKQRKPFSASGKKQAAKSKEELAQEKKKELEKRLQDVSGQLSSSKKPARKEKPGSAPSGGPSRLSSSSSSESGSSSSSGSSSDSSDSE
Sequence of Bromodomain-containing protein 2 (P25440 whole entry): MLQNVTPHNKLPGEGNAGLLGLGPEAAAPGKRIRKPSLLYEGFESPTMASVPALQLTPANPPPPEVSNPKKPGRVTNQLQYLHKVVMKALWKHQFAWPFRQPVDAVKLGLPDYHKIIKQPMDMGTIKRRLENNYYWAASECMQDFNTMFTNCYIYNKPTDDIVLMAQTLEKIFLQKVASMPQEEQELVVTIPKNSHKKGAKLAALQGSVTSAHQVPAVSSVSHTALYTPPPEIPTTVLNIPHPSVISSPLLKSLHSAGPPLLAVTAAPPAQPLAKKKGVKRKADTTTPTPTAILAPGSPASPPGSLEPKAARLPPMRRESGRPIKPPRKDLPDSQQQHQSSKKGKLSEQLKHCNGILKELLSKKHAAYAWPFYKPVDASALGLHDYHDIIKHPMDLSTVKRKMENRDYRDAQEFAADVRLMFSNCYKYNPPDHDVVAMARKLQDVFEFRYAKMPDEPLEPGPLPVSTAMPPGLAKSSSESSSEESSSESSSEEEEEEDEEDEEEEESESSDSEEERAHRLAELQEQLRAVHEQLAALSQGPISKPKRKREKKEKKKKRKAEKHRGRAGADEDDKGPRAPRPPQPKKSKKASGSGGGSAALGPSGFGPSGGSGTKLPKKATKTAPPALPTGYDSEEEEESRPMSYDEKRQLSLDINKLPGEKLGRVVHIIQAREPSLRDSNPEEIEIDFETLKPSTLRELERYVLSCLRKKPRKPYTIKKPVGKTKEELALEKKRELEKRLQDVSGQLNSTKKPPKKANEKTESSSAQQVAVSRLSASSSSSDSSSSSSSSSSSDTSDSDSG
Sequence of CREB-binding protein (Q92793 whole entry, the tested form may be a part): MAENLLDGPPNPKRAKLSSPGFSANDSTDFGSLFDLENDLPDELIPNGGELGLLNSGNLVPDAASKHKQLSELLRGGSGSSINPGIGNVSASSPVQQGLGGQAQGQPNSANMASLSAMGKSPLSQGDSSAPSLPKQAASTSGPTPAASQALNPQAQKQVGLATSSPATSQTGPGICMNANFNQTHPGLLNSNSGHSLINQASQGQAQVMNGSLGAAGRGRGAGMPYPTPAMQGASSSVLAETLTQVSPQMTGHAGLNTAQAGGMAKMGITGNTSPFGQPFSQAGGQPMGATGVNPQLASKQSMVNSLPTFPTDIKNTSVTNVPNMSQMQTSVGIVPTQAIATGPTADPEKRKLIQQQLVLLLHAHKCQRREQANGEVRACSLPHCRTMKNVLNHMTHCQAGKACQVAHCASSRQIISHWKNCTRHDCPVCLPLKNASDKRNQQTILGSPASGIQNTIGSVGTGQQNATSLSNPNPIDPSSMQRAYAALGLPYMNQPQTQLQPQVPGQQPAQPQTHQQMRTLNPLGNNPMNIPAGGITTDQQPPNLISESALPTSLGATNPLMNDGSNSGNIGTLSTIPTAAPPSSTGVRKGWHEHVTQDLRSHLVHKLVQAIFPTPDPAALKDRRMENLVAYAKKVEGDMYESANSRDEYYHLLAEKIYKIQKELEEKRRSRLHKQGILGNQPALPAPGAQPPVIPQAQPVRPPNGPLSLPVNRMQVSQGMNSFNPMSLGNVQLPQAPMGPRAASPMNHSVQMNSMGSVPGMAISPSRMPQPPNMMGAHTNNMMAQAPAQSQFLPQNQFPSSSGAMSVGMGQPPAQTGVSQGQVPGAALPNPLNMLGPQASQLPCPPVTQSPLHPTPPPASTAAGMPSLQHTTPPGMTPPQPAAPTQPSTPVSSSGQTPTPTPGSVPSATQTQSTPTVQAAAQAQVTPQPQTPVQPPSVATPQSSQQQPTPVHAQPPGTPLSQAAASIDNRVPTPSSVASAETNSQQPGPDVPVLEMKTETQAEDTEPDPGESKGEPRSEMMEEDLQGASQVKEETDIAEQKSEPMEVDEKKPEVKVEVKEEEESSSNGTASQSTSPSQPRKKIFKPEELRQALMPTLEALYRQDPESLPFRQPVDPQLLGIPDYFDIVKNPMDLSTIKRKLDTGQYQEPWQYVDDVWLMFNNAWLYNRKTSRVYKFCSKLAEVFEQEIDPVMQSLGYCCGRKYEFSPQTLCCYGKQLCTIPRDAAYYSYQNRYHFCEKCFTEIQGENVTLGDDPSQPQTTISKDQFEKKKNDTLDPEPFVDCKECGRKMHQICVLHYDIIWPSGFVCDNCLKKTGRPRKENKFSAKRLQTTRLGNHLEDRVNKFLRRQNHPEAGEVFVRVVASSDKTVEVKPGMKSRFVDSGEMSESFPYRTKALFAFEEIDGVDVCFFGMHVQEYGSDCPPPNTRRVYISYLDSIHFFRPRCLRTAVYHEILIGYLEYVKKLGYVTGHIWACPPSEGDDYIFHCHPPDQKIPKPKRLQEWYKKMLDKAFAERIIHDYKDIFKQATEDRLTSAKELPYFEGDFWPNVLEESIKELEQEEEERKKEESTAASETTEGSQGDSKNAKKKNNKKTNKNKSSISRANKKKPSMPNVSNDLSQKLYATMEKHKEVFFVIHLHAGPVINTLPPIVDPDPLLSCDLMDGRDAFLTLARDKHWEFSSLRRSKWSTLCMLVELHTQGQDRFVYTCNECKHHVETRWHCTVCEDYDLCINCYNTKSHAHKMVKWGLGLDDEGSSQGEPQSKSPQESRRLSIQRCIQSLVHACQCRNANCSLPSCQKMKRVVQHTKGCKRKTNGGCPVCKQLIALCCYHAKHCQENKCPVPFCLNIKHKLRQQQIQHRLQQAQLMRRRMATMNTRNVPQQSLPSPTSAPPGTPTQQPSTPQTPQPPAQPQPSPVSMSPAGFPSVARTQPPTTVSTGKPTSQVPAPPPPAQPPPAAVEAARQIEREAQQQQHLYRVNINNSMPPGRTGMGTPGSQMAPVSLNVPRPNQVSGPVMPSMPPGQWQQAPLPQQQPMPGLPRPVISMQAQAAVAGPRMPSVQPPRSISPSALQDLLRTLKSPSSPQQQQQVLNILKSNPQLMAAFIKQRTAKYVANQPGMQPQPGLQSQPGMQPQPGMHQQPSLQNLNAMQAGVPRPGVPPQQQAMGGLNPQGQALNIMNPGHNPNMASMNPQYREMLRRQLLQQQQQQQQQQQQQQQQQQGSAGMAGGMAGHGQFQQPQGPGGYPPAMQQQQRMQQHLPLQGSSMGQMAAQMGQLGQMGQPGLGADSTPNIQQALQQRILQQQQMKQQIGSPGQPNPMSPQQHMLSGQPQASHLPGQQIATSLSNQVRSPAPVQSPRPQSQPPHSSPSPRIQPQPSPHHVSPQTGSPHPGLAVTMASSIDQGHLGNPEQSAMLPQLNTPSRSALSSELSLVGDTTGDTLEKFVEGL

As for `CCc1nn(CCOC)c2c1C(c1ccc(Cl)cc1)N(c1cc(C)c(=O)n(C)c1)C2=O` (stereo not given), the values for the IC50 (on CREB-binding protein; in assay [1]; in assay [2]) were 4.8 µM, 44 nM and 52 nM, respectively.

As for `Cc1cc(N2C(=O)c3nn(C(C)C)c(C)c3C2c2ccc(Cl)cc2F)cn2c(C)nnc12` (stereo not given), the IC50 on CREB-binding protein was found to be 2.6 µM; in assay [3] it was 71 nM; in assay [1] it was 60 nM; in assay [2], 120 nM.

Regarding `COc1ncccc1-n1nc2c(c1C)C(c1ccc(F)cc1F)N(c1cc(C)c3nnc(C)n3c1)C2=O` (stereo not given), the IC50 at CREB-binding protein was 16 µM; in assay [3], 55 nM; in assay [1], 80 nM; in assay [2], 130 nM.

As for `Cc1[nH]nc2c1C(c1ccc(Cl)cc1F)N(c1cc(C)c(=O)n(C)c1)C2=O` (stereo not given), the half-inhibitory concentration (IC50) on CREB-binding protein worked out at 2.8 µM; in assay [3], 190 nM; in assay [1], 170 nM; in assay [2], 270 nM.
